According to patent publication US10568819B2, “Skin enhancing compositions and methods” (Sytheon Limited, priority 2016, dated 2020):
Where two headings read alike, the source gives them in different places.

Experiments:
[1] = test system: human dermal fibroblasts; assay: UVA-induced mitochondrial damage measured by ATP production (Mitochondrial ToxGlo Assay); format: cell-based; settings: 24 h pre-incubation
Procedure: The study was conducted in accordance with the protocols of Berridge et al, (M V Berridge & A S Tan, Characterization of the cellular reduction of 3-(4,5-dimethylthiazol-2-yl)-2,5-diphenyltetrazolium bromide (MTT): subcellular localization, substrate dependence, and involvement of mitochondrial electron transport in MTT reduction, Arch. Biochem. Biophys. 303:474-482, 1993) and Voigt (W Voigt, Sulforhodamine B assay and chemosensitivity, Methods Mol Med, 110:39-48, 2005). Cellular metabolism is determined using the MTT assay to measure the activity of mitochondrial dehydrogenases, such as succinate dehydrogenase, which are implicated in the respiratory electron transport chain in mitochondria [M V Berridge & Tan Biochem Biophys, 303:474-482, 1993]. Additionally, the samples were subject to the Mitochondrial ToxGlo Assay (Promega Technical Manual, G8000 and G8001), which is a cell-based assay method that has been developed to quantify potential mitochondrial dysfunction as a result of xenobiotic exposure, using a sequential-addition, multiplexed chemistry.
Table 8 presents the result on the effect of UVA radiation on cell metabolism 3 hours after irradiation. As indicated, Compound 1 improves cell metabolism, even at a very low use concentration. Table 9 presents the effect of 24 hour pre-incubation on UVA-induced mitochondrial damage measured by ATP production in human dermal fibroblasts. […] Finally. Table 10 presents the effect of 24 hour pre-incubation on UVA-induced plasma membrane disruption in human dermal fibroblasts. As indicated, Compound 1 almost completely reversed plasma membrane disruption, again at a very low use concentration.

[2] = test system: COL5A1; assay: PCR array gene expression, COL5A1; format: cell-based
From the text: (§1) In light of the efficacy of the aryl alkanones ire addressing many of the molecular/biomolecular processes damaged by UV exposure, a study was undertaken to assess whether these compounds would also be effective in addressing symptoms associated with non-UV induced skin aging including chronological aging as well as disease conditions that likewise adversely affect skin processes. The studies conducted involves DNA microarray, PCR array, cell culture, enzyme inhibitory activity.

[3] = test system: MMP3; assay: DNA microarray gene expression, MMP3; format: cell-based
From the text: as §1

[4] = test system: ELN; assay: DNA microarray gene expression, ELN; format: cell-based
From the text: as §1

[5] = test system: Collagen type 3; assay: Collagen 3 boosting in human dermal fibroblasts; format: cell-based; settings: HDF, incubation time of 6 days
Procedure: In this study, an investigation was performed in relation to the ability, if any, of the aryl alkanones to boost the production of Collagens 1, 3 and 4 proteins. The study was conducted using human fibroblasts in accordance with the method of J Dobak et at (J Dobak, J Grzybowski, F T Liu, B Landon, M Dobke, 1, 25-Dihydroxyvitamin D3 increases collagen production in dermal fibroblasts, J Dermatol Sci 1994; 8:18-24, 1994). In this study, the cells used were human dermal fibroblasts (HDF), passage 12 (Cell Applications, San Diego, Calif.) which underwent an incubation time of 6 days.

[6] = test system: Collagen type 1; assay: Collagen 1 boosting in human dermal fibroblasts; format: cell-based; settings: HDF, incubation time of 6 days
Procedure: In this study, an investigation was performed in relation to the ability, if any, of the aryl alkanones to boost the production of Collagens 1, 3 and 4 proteins. […] In this study, the cells used were human dermal fibroblasts (HDF), passage 12 (Cell Applications, San Diego, Calif.) which underwent an incubation time of 6 days.

[7] = test system: LAMC1; assay: PCR array gene expression, LAMC1; format: cell-based
From the text: as §1

[8] = test system: COL5A1; assay: DNA microarray gene expression, COL5A1; format: cell-based
From the text: as §1

[9] = test system: Keratinocytes; assay: UVA- and UVB-induced formation of immediate CPDs (iCPDs) in keratinocytes; format: cell-based; settings: 25 μg/ml
Procedure: Given the significance of CPDs in skin aging and damage, a study was undertaken to determine whether compounds of the present invention have the ability to directly protect the genome of skin cells from the mutagenic effect of UV light as evidenced by CPDs inhibition. The study was conducted in accordance with the method described by Mitchell et. al. [Mitchell, D L, The relative cytotoxicity of (6-4) photoproducts and cyclobutane dimers in mammalian cells. Photochem Photobiol, 48(1):51-57, 1988)] pursuant to which UVA- and UVB-induced formation of immediate CPDs (iCPDs) were determined.

[10] = molecular target: T1, MMP-1 enzyme (Homo sapiens, UniProt P03956); assay: MMP-1 inhibition; format: biochemical; settings: read-out: Inhibitory concentration (IC50), MMP-1
T1 construct: purchased Anaspec
T1 sequence (P03956 100-469, species assumed): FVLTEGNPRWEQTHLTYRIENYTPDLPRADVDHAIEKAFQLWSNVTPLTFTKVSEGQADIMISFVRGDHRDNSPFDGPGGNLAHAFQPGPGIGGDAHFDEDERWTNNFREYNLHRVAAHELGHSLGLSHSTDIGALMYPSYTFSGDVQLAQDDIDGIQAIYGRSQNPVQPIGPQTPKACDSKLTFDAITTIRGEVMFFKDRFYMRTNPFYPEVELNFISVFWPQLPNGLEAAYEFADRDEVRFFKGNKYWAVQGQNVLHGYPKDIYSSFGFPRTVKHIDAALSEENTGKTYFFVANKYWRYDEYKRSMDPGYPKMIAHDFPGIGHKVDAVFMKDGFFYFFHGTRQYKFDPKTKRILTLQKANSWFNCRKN
Procedure: (§2) Another study was conducted in which the elastin and MMP activity of Compound 1 was evaluated. The methodology for the study of MMP-1 and MMP-3 activity was as follows: • A 0.1 g sample of Compound 1 was dissolved in 1 ml DMSO, then it was diluted 100× with Tris buffer (50 mM Iris pH 7.5, 150 mM NaCl, 2 mM CaCl2, 5μ ZnO4, 0.01% Brij-35) to make a stock solution. For the analysis, different concentrations of Compound 1 were used to determine the IC50. The sample and 100 ng/ml MMP-1 enzyme (Anaspec) or MMP-3 enzyme (Anaspec) were incubated at 37° C. for 10 minutes before the addition of 2.25 μM PEPDAB008 substrate (Biozyme). The fluorescence signal was monitored at excitation of 485 nm and emission of 530 nm.

[11] = test system: NOX; settings: Keratinocytes
[12] = molecular target: T2, MMP-3 enzyme (Homo sapiens, UniProt P08254); assay: MMP-3 inhibition; format: biochemical; settings: read-out: Inhibitory concentration (IC50), MMP-3
T2 construct: purchased Anaspec
T2 sequence (P08254 100-477, species assumed): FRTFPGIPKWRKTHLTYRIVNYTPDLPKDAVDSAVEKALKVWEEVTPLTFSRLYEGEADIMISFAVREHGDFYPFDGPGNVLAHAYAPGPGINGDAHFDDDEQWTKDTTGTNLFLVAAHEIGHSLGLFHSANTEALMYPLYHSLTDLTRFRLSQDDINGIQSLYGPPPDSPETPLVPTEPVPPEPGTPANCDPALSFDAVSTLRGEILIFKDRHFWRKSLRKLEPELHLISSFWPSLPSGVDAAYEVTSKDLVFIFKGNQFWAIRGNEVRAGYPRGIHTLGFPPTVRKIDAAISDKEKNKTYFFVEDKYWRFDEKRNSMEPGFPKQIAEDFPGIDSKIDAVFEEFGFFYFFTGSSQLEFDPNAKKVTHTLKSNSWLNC
Procedure: as §2

[13] = test system: MSH6; assay: DNA microarray gene expression, MSH6; format: cell-based
From the text: as §1

[14] = test system: COL3A1; assay: DNA microarray gene expression, COL3A1; format: cell-based
From the text: as §1

[15] = test system: COL11A1; assay: PCR array gene expression, COL11A1; format: cell-based
From the text: as §1

[16] = test system: COL6A3; assay: DNA microarray gene expression, COL6A3; format: cell-based
From the text: as §1

[17] = test system: TNS2; assay: DNA microarray gene expression, TNS2; format: cell-based
From the text: as §1

COc1cc(CC(C(C)=O)C(C)=O)ccc1O [Compound 1, Acetyl Zingerone] was tested, and the “ATP-related chemoluminescence (% Control)” value ([1]; 6.25 ug/ml) was 94 % Control, the “Comments: % damage” value ([1]; 6.25 ug/ml) was “Only 6%” and the “ATP-related chemoluminescence (% Control)” value ([1]; 12.5 ug/ml) was 87 % Control. The “Comments: % damage” value ([1]; 12.5 ug/ml) was “Only 13%”, the “PCR array, COL5A1 gene expression” value [2] was “+2.7” and the “Microarray, MMP3 gene expression” value [3] was −2.4. For the same compound, the “Microarray, ELN gene expression” value [4] was “+1.7”, the “% Collagen 3 boosting” value ([5]; 50 μg/ml) was 111% and the “% Collagen 3 boosting” value ([5]; 100 μg/ml) was 146%. For the same compound, the “% Collagen 1 Bosting” value ([6]; 50 μg/ml) was 118%, the “% Collagen 1 Bosting” value ([6]; 100 μg/ml) was 173% and the “PCR array, LAMC1 gene expression” value [7] was “+2.0”. The “Microarray, COL5A1 gene expression” value [8] was “+4.1”, the “UVA/% Reduction in iCPDs vs. Control” value ([9]; UVA) was 73% and the “UVB/% Reduction iCPDs vs. Control” value ([9]; UVB) was 44%. For the same compound, the IC50 [10] was 4.19 mM, the “reduction of NOX activity” value ([11]; UVA, 25 μg/ml) was −27% and the “reduction of NOX activity” value ([11]; UVA, 50 μg/ml) was −38%. The “reduction of NOX activity” value ([11]; UVB, 25 μg/ml) was −11%, the “reduction of NOX activity” value ([11]; UVB, 50 μg/ml) was −29% and the IC50 [12] was 2.14 mM. For the same compound, the “Microarray, MSH6 gene expression” value [13] was “+2.1”, the “Microarray, COL3A1 gene expression” value [14] was “+1.7” and the “PCR array, COL11A1 gene expression” value [15] was “+1.9”. The “Microarray, COL6A3 gene expression” value [16] was “+1.8” and the “Microarray, TNS2 gene expression” value [17] was “+1.7”.
